Assay results from patent publication US20250161287A1, “METHODS, COMPOSITIONS, AND COMBINATIONS FOR PREVENTING OR TREATING CANCER RECURRENCE” (VUJA DE SCIENCES, INC., priority 2022, published 2025).
“Also recorded” adds a separate entry of the source. Read-outs that look alike come from different tables or passages of the source.

How the values were obtained:
MG63.3 OS cell line [1] = experiment: in vitro 3D BME assay with MG63.3 OS cell line; type: cell-based, human; conditions: for activity on 3D BME compared with 2D: MG63.3, 3D BME vs 2D MTT 72 h; for growth inhibition in the 3D BME assay / 3D activity and selectivity for ME in a screen of 10 HDAC inhibitors: MG63.3; for 3D activity and selectivity for ME in a screen of 10 HDAC inhibitors: selectivity = ratio of 3D to 2D % inhibition at the same dose, Class I, Class II, pan-HDAC; for earlier (2 days on, 4 days off) vs later (2 days off, 4 days on) treatment: MG63.3 3D BME
From the text: 3D basement membrane extract (BME) assay was developed at the NCI Barkan (D. Barkan et al. 2008; Dalit Barkan and Green 2011; Hen and Barkan 2020). BME is purified from Engelbreth-Holm-Swarm (EHS) tumor, primarily made up of laminin, collagen IV, entactin, and heparin sulfate proteoglycans (Cultrex Reduced Growth Factor Basement Membrane Extract, PathClear n.d.), which allows it to more accurately reflect the 3D extracellular environment in the body.
Initially >150 selected therapeutic agents were tested on BME based on the likelihood for either a positive effect or a […] negative effect (as negative controls). […] These therapeutic agents were also tested in dose response (as broad as 1 pM-100 μM) for 2D cytotoxicity (MTT) and the IC50 was calculated. Where required, the hits from the initial screen were also further characterized at additional doses <100 nM in order to further determine the relative selectivity compared to the 2D IC50.
The influence of drug exposure on the metastatic phenotype was assessed in an in vitro assay of ME and escape from dormancy using a 3D BME assay as previously reported, which was adapted for use with OS cells.
Cultrex® PathClear, Reduced Growth Factor Basement Membrane Extract (BME—Bio-Techne, Minneapolis, MN) was added ([…]) to a 96-well plate and allowed to gel by incubating at 37° C. for ≥30 min. Cells were harvested, washed with DMEM (no glucose, no FBS, Gibco, Grand Island, NY) and centrifuged at 1500 g×5 mins. The media was aspirated and the remaining cell pellet flicked for about 10 s to ensure disaggregation.
Cells were diluted in assay media containing 2% BME, resuspended vigorously and 150 μL of the cell suspension was added on top of the gelled 3D BME layer. […] Cell numbers were determined in control vehicle (cells in media+0.1% DMSO), or treated wells and were measured on the indicated days by addition of 20 μL/well of MTS reagent (Cell Titer 96 Aqueous One, Promega, Madison, WI), followed by incubation at 37° C. for 2 h and absorbance measurements at 490 nm via plate reader (Molecular Devices, San Jose CA).
All conditions were conducted in quadruplicate and each experiment was carried out at least 3 separate times. All comparisons were made between treatment and vehicle control at concordant time points. Statistical analyses and non-linear regressions were derived using GraphPad Prism statistical software.

MG63.3 OS cell line [2] = experiment: 2D growth / cytotoxicity by MTT, MG63.3; conditions: for doses exhibiting cytotoxicity on 2D growth: 72 h
Procedure: The number of viable cells present in 2D culture was determined by MTT as previously reported. Briefly, cells were plated in 96-well plates at 2,000 cells/well and incubated at 37° C. for 24 h. After 24 h, the media was replaced with fresh media containing drugs at the desired concentrations (10 pM-10 μM) and incubated at 37° C. for 72 h. After 72 h, MTT reagent (20 L/well of a 5 mg/mL stock solution in sterile water; Sigma, St. Louis, MO) was added to each well and the plate was incubated at 37° C. for 2 h. DMSO ([…]) was then added to each well to solubilize the formazan crystals.
The resulting absorbance was measured at 490 nm via plate reader (Molecular Devices, San Jose, CA). DMSO (0.1%) was used as vehicle control, while 20 μM rapamycin was used as a positive cell-kill control. The experimental conditions were conducted in triplicate and each experiment was repeated three times. Regression lines and IC50's were calculated using a four-parameter variable slope nonlinear fit in GraphPad Prism.

[3] = Homo sapiens, MG-63.3, MG63.3 on 3D BME, vs vehicle control, replicates=4, read-out: lowest dose leading to appreciable inhibition of 3D growth

Row | Compound | activity on 3D BME compared with 2D (MG63.3 OS cell line [1]) | doses exhibiting cytotoxicity on 2D growth (MG63.3 OS cell line [2]; human) | minimal effective concentration (MG63.3 OS cell line [1]; [3]) | 3D activity and selectivity for ME in a screen of 10 HDAC inhibitors (MG63.3 OS cell line [1]) | other results
1 | O=C(/C=C/c1cccnc1)NCCCCC1CCN(C(=O)c2ccccc2)CC1 [(E)-daporinad] | much stronger activity on 3D BME at significantly lower doses | > 0.1 nM |  |  | minimal effective concentration (MG63.3 OS cell line [1]; MG63.3 on 3D BME, vs vehicle control, replicates=4, read-out: lowest dose leading to appreciable inhibition of 3D growth): 0.0001 µM
2 | COc1c(C)cnc(Cn2cnc3c(Cl)nc(N)nc32)c1C [BIIB021] | much stronger activity on 3D BME at significantly lower doses | > 10 nM | 0.008 µM |  | 
3 | O=C(NOC[C@H](O)CO)c1ccc(F)c(F)c1Nc1ccc(I)cc1F [PD0325901] | much stronger activity on 3D BME at similar doses; also recorded: more active in 3D than in 2D | ≥ 100 nM |  |  | minimal effective concentration (MG63.3 OS cell line [1]; Homo sapiens, MG-63.3, read-out: lowest dose leading to appreciable inhibition of 3D growth): 0.001 µM; growth inhibition in the 3D BME assay (MG63.3 OS cell line [1]; PD0325901 1-128 nM): 50-75%; inhibition in 2D at this dose (MG63.3 OS cell line [2]; PD0325901 1-128 nM, MG63.3): no statistically significant inhibition
4 | COc1cc(Nc2ncc3c(n2)-c2ccc(Cl)cc2C(c2c(F)cccc2OC)=NC3)ccc1C(=O)O [alisertib] | much stronger activity on 3D BME at significantly lower doses | > 25 nM | 0.0125 µM |  | 
5 | CO[C@H]1/C=C\C=C(/C)C(=O)NC2=CC(=O)C(NCCN(C)C)=C(C[C@@H](C)C[C@H](OC)[C@H](O)[C@@H](C)/C=C(\C)[C@@H]1OC(N)=O)C2=O [alvespimycin] | much stronger activity on 3D BME at significantly lower doses |  | 0.0125 µM |  | doses exhibiting cytotoxicity on 2D growth (MG63.3 OS cell line [2]; MG63.3, MTT, replicates=3): > 25 nM
6 | O=C(/C=C/c1cccc(S(=O)(=O)Nc2ccccc2)c1)NO [belinostat] |  | ≥ 80 nM | 0.2 µM | 3D activity and selectivity for ME | 
7 | CO[C@@H](C(=O)N1Cc2n[nH]c(NC(=O)c3ccc(N4CCN(C)CC4)cc3)c2C1)c1ccccc1 [danusertib] | much stronger activity on 3D BME at significantly lower doses | > 100 nM | 0.1 µM |  | 
8 | Cn1cc(-c2ccc(S(=O)(=O)n3ccc(/C=C/C(=O)Nc4ccccc4N)c3)cc2)cn1 [domatinostat] | much stronger activity on 3D BME at similar doses; also recorded: more active in 3D than in 2D | ≥ 200 nM | 0.1 µM | highest 3D activity and selectivity for ME | earlier (2 days on, 4 days off) vs later (2 days off, 4 days on) treatment (MG63.3 OS cell line [1]; FIG. 68, rapamycin 2-16 nM experiment): slightly more inhibition than later treatment; efficacy of domatinostat alone treated for 1 day (MG63.3 OS cell line [1]; domatinostat 100-200 nM, 1 day on, 5 days off): little to no efficacy; growth inhibition in the 3D BME assay (MG63.3 OS cell line [1]; domatinostat 100-200 nM): 20-50%; inhibition of 3D growth relative to vehicle, two schedules (MG63.3 OS cell line [1]; domatinostat 200-800 nM, Days 3-6 (2 days off, 4 days on) or Days 1-2 (2 days on, 4 days off), P<0.005): significantly inhibition relative to vehicle for both treatment schedules; earlier (2 days on, 4 days off) vs later (2 days off, 4 days on) treatment (MG63.3 OS cell line [1]; domatinostat 200-800 nM): slightly more inhibition than later treatment; re-treatment on Day 3 vs treated once, inhibition of 3D growth (MG63.3 OS cell line [1]; rapamycin 1 nM, domatinostat 100 & 150 nM, combination, P<0.01 for all except 100 nM domatinostat alone): significantly increased inhibition relative to the conditions only treated with drug once; inhibition in 2D at these doses (MG63.3 OS cell line [2]; domatinostat 100-200 nM, MG63.3): no statistically significant inhibition
9 | CO[C@H]1C[C@@H]2CC[C@@H](C)[C@@](O)(O2)C(=O)C(=O)N2CCCC[C@H]2C(=O)O[C@H]([C@H](C)C[C@@H]2CC[C@@H](OCCO)[C@H](OC)C2)CC(=O)[C@H](C)/C=C(\C)[C@@H](O)[C@@H](OC)C(=O)[C@H](C)C[C@H](C)/C=C/C=C/C=C/1C [everolimus] | much stronger activity on 3D BME at similar doses |  | 0.01 µM |  | cytotoxicity on 2D growth (MG63.3 OS cell line [2]): cytotoxicity across all doses tested
10 | COc1ccc(-c2nc(N3CCOCC3)c3sc(CN(C)c4ncc(C(=O)NO)cn4)cc3n2)cn1 [fimepinostat] |  | ≥ 1 nM |  | 3D activity and selectivity for ME | lowest dose leading to complete inhibition of 3D growth (MG63.3 OS cell line [1]; MG63.3 on 3D BME, vs vehicle control, replicates=4): 5 nM
